Assay results from ChEMBL document CHEMBL1201862, “PubChem BioAssay data set” (2004).
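These data come from cells grown in 96-well plates and exposed to compound for 48 hours at five concentrations. At the GI50, growth is halved.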 Active and inactive are the calls of the source. Cut-off read from the data, not from the text of the source: active = GI50 up to about 1.1 µM and inactive = higher.

Experiments:
Experiment in all cases: growth of human tumour cells (NCI), 48 h
ACHN = tested on: ACHN
CAKI-1 = tested on: CAKI-1
HCT-116 = tested on: HCT-116
HCT-15 = tested on: HCT-15
HOP-92 = tested on: HOP-92
Hs-578T = tested on: Hs-578T
MCF7 = tested on: MCF7
MOLT-4 = tested on: MOLT-4
NCI-H460 = tested on: NCI-H460
NCI/ADR-RES = tested on: NCI/ADR-RES
PC-3 = tested on: PC-3
SF-295 = tested on: SF-295
SF-539 = tested on: SF-539
SK-MEL-28 = tested on: SK-MEL-28
SK-MEL-2 = tested on: SK-MEL-2
SNB-75 = tested on: SNB-75
UACC-257 = tested on: UACC-257
EKVX = tested on: EKVX
MDA-MB-231 = tested on: MDA-MB-231
NCI-H522 = tested on: NCI-H522

Structure (SMILES)	GI50 (ACHN)	GI50 (CAKI-1)	GI50 (HCT-116)	GI50 (HCT-15) [µM]	GI50 (HOP-92)	GI50 (Hs-578T)	GI50 (MCF7)	GI50 (MOLT-4)	GI50 (NCI-H460)	GI50 (NCI/ADR-RES)	GI50 (PC-3)	GI50 (SF-295)	GI50 (SF-539)	GI50 (SK-MEL-28)	GI50 (SK-MEL-2)	GI50 (SNB-75)	GI50 (UACC-257)	GI50 (EKVX)	GI50 (MDA-MB-231)	GI50 (NCI-H522)
CCCCCCCCCC1(N=[N+]=[N-])C(=O)c2ccccc2N(C)C1=O (centres undefined)	32.3 µM (inactive)	34.4 µM (inactive)	21.1 µM (inactive)	30.3	20.2 µM (inactive)	24.3 µM (inactive)	29.9 µM (inactive)	7.13 µM (inactive)	37.2 µM (inactive)	26.7 µM (inactive)	19.4 µM (inactive)	42.2 µM (inactive)	70 µM (inactive)	28.8 µM (inactive)	25.4 µM (inactive)	29.9 µM (inactive)	32.9 µM (inactive)	–	–	–
CCOC(=O)NC(=S)NC(C)c1ccccc1 (centres undefined)	> 100 µM (inactive)	> 100 µM (inactive)	> 100 µM (inactive)	> 100	–	> 100 µM (inactive)	> 100 µM (inactive)	26.4 µM (inactive)	–	> 100 µM (inactive)	> 100 µM (inactive)	> 100 µM (inactive)	–	> 100 µM (inactive)	> 100 µM (inactive)	> 100 µM (inactive)	> 100 µM (inactive)	> 100 µM (inactive)	> 100 µM (inactive)	> 100 µM (inactive)
O=C(/C=C/c1ccc(Cl)cc1)Oc1ccc(/C=C2\CCCCC2=O)cc1	> 100 µM (inactive)	> 100 µM (inactive)	> 100 µM (inactive)	> 100	> 100 µM (inactive)	> 100 µM (inactive)	> 100 µM (inactive)	28.8 µM (inactive)	> 100 µM (inactive)	–	> 100 µM (inactive)	> 100 µM (inactive)	> 100 µM (inactive)	> 100 µM (inactive)	> 100 µM (inactive)	> 100 µM (inactive)	> 100 µM (inactive)	> 100 µM (inactive)	> 100 µM (inactive)	50.8 µM (inactive)
Cc1c(CN2CCN(C)CC2)c(CN2CCN(C)CC2)c(C)n1-c1ccc(Cl)cc1	96.8 µM (inactive)	25.1 µM (inactive)	27.7 µM (inactive)	47	–	24 µM (inactive)	39.5 µM (inactive)	30.3 µM (inactive)	50.7 µM (inactive)	> 100 µM (inactive)	29.4 µM (inactive)	21.2 µM (inactive)	–	19.5 µM (inactive)	21.3 µM (inactive)	25.9 µM (inactive)	14.2 µM (inactive)	72.4 µM (inactive)	68.5 µM (inactive)	20.5 µM (inactive)
Oc1ccc2ccccc2c1/N=N/c1ccc(Br)cc1	89.1 µM (inactive)	> 100 µM (inactive)	> 100 µM (inactive)	> 100	35.3 µM (inactive)	24.7 µM (inactive)	–	> 100 µM (inactive)	–	> 100 µM (inactive)	> 100 µM (inactive)	28.9 µM (inactive)	–	> 100 µM (inactive)	> 100 µM (inactive)	95.5 µM (inactive)	> 100 µM (inactive)	36.2 µM (inactive)	> 100 µM (inactive)	> 100 µM (inactive)
CN(C)/N=N/c1nc2c(c(=O)n(C)c(=O)n2C)n1C	> 100 µM (inactive)	> 100 µM (inactive)	> 100 µM (inactive)	> 100	–	> 100 µM (inactive)	7.5 µM (inactive)	> 100 µM (inactive)	> 100 µM (inactive)	> 100 µM (inactive)	> 100 µM (inactive)	> 100 µM (inactive)	–	> 100 µM (inactive)	> 100 µM (inactive)	> 100 µM (inactive)	> 100 µM (inactive)	> 100 µM (inactive)	> 100 µM (inactive)	> 100 µM (inactive)
CCOC(=O)c1c(O)nc2cccc3c2c1-c1cccnc1S3	28.8 µM (inactive)	16.7 µM (inactive)	44.5 µM (inactive)	35.8	–	22.4 µM (inactive)	1.14 µM (inactive)	16.9 µM (inactive)	24.4 µM (inactive)	33.1 µM (inactive)	15.8 µM (inactive)	23.7 µM (inactive)	27.6 µM (inactive)	30.8 µM (inactive)	56.1 µM (inactive)	21.2 µM (inactive)	37.6 µM (inactive)	30.3 µM (inactive)	39 µM (inactive)	25.8 µM (inactive)
COC1=C(OC)C(=O)C(Cc2c(C)nc3sc(C)cn23)=C(C)C1=O	15.1 µM (inactive)	20.4 µM (inactive)	19.8 µM (inactive)	26.1	–	23.9 µM (inactive)	20.5 µM (inactive)	1.7 µM (inactive)	20 µM (inactive)	15.9 µM (inactive)	23.4 µM (inactive)	19.1 µM (inactive)	17.4 µM (inactive)	16.1 µM (inactive)	17.4 µM (inactive)	–	12.8 µM (inactive)	16.7 µM (inactive)	14.7 µM (inactive)	17.4 µM (inactive)
N[C@@H](CCC(=O)NCP(=O)(O)O)C(=O)O	> 100 µM (inactive)	–	> 100 µM (inactive)	> 100	–	> 100 µM (inactive)	> 100 µM (inactive)	> 100 µM (inactive)	> 100 µM (inactive)	> 100 µM (inactive)	> 100 µM (inactive)	> 100 µM (inactive)	> 100 µM (inactive)	> 100 µM (inactive)	> 100 µM (inactive)	–	> 100 µM (inactive)	> 100 µM (inactive)	> 100 µM (inactive)	18.2 µM (inactive)
CC(=O)NS(=O)(=O)c1ccc(NC(=O)c2c3ccccc3nc3ccccc23)cc1	> 100 µM (inactive)	> 100 µM (inactive)	> 100 µM (inactive)	> 100	> 100 µM (inactive)	–	> 100 µM (inactive)	> 100 µM (inactive)	> 100 µM (inactive)	> 100 µM (inactive)	> 100 µM (inactive)	> 100 µM (inactive)	> 100 µM (inactive)	> 100 µM (inactive)	> 100 µM (inactive)	> 100 µM (inactive)	> 100 µM (inactive)	> 100 µM (inactive)	> 100 µM (inactive)	> 100 µM (inactive)
CC(C(N)=O)N(C)C(=O)c1cc2ccccc2[n+](Cc2ccccc2)c1 (centres undefined)	> 100 µM (inactive)	> 100 µM (inactive)	> 100 µM (inactive)	> 100	> 100 µM (inactive)	–	> 100 µM (inactive)	> 100 µM (inactive)	> 100 µM (inactive)	> 100 µM (inactive)	> 100 µM (inactive)	> 100 µM (inactive)	> 100 µM (inactive)	> 100 µM (inactive)	> 100 µM (inactive)	> 100 µM (inactive)	> 100 µM (inactive)	–	> 100 µM (inactive)	> 100 µM (inactive)
CCOC(=O)C1=C(C)N(C)C23OC4(C(=O)OC)CC2c2ccccc2C1N3C4=O (centres undefined)	> 100 µM (inactive)	> 100 µM (inactive)	49.8 µM (inactive)	63.7	> 100 µM (inactive)	–	28.1 µM (inactive)	74.8 µM (inactive)	20 µM (inactive)	86.9 µM (inactive)	> 100 µM (inactive)	39.3 µM (inactive)	22.3 µM (inactive)	> 100 µM (inactive)	> 100 µM (inactive)	> 100 µM (inactive)	> 100 µM (inactive)	> 100 µM (inactive)	> 100 µM (inactive)	37.4 µM (inactive)
CO[C@H]1[C@@H](O)[C@H](O[C@@H]2C[C@H]3CC[C@@H]4[C@H](CC[C@]5(C)[C@@H](C6=CC(=O)OC6)CC[C@]45O)[C@@]3(C)[C@H](OC(C)=O)C2)O[C@@H](C)[C@H]1O	0.393 µM (active)	0.533 µM (active)	0.76 µM (active)	1.92	2.54 µM (inactive)	2.07 µM (inactive)	–	0.281 µM (active)	0.465 µM (active)	1.77 µM (inactive)	2.26 µM (inactive)	1.13 µM (inactive)	0.573 µM (active)	4.34 µM (inactive)	2.88 µM (inactive)	3.61 µM (inactive)	2.84 µM (inactive)	1.29 µM (inactive)	4.2 µM (inactive)	0.574 µM (active)
N#Cc1c(N)nc2c(c1-c1ccc(Br)cc1)CSc1ccccc1-2	–	14.9 µM (inactive)	18.5 µM (inactive)	25.6	9.02 µM (inactive)	22.8 µM (inactive)	19.1 µM (inactive)	38.7 µM (inactive)	25.8 µM (inactive)	22 µM (inactive)	16.7 µM (inactive)	–	35 µM (inactive)	68.7 µM (inactive)	27.2 µM (inactive)	31.4 µM (inactive)	13.9 µM (inactive)	–	13.3 µM (inactive)	–
Cc1cc(N(CCC#N)CCC#N)ccc1C(/N=N/c1ccccc1)=N\NC(=O)c1cc(Cl)ccc1O	15.8 µM (inactive)	46.8 µM (inactive)	15.7 µM (inactive)	18.4	–	23.8 µM (inactive)	11.7 µM (inactive)	39 µM (inactive)	24.5 µM (inactive)	20.1 µM (inactive)	23.5 µM (inactive)	18.5 µM (inactive)	20.5 µM (inactive)	–	32.4 µM (inactive)	77.6 µM (inactive)	18.6 µM (inactive)	30.5 µM (inactive)	27.1 µM (inactive)	13.6 µM (inactive)
